Test results as given in patent publication US7208517B1, “Endothelin antagonists” (Abbott Labortories, priority 1994, dated 2007).

What was measured:
[1] = Determination of plasma protein binding (ultrafiltration, HPLC); assay type: in vitro ADME; details: fresh plasma, 1 hour at room temperature
Description: A stock solution of the test compound in 50% ethanol (2 mg/mL) was diluted 10× into PBS. A 0.4 mL sample of this secondary stock solution was added to 3.6 mL of fresh plasma, and incubated at room temperature for 1 hour. A 1 mL sample of this incubation mixture was transferred to a Centrifree ultrafiltration tube. The sample was centrifuged in a fixed-bucket rotor for approximately 2 min and the filtrate was discarded. The sample was centrifuged for another 15–30 min. A 100 μL sample of the ultrafiltrate was transfered to a micro HPLC sample vial containing […] of HPLC mobile phase and mixed thoroughly. A 50 μL sample was injected and the concentration of drug in the ultrafiltrate was determined by HPLC analysis compared against a standard sample prepared identically in the absence of plasma. Ultrafiltrate concentrations are calculated from a calibration curve. Protein binding is calculated according to the equation: % PB=[1−(Cu/Ci)]*100%
where Cu is the ultrafiltrate concentration and Ci is the initial plasma concentration.

human ETA receptor = target: T1, human ETA receptor (Homo sapiens, UniProt P25101); experiment: Albumin-induced binding shift study: [125I]ET-1 binding in presence of human serum albumin; details: 0%, 0.2%, 1% or 5% HSA
T1 construct: expressed in transfected cells; host or cells: CHO cells, permanently transfected
T1 sequence (P25101 21-427): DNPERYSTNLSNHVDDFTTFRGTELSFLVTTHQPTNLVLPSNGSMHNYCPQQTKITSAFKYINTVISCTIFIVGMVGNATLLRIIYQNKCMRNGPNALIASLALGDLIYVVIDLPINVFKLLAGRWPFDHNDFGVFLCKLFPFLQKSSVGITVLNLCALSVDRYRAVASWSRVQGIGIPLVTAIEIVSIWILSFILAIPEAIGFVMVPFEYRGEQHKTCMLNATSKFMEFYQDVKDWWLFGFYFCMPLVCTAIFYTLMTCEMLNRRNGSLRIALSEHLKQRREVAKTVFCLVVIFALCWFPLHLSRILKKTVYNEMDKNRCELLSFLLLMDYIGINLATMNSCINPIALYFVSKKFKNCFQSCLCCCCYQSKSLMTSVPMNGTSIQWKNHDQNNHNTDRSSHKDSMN
Description: Protocol for Albumin-induced binding shift studies: Binding assays were performed in 96-well microtiter plates precoated with 0.1% BSA unless otherwise indicated. Membranes were diluted in Buffer B (20 mM Tris, 100 mM NaCl, 10 mM MgCl2, pH 7.4, 0.1 mM PMSF, […] Pepstatin A, 0.025% bacitracin and 3 mM EDTA) to a final concentration of 0.05 mg/ml of protein. Varying concentrations of human serum albumin (HSA) were added as indicated. In competition studies, membranes were incubated with 0.1 nM of [^125I]ET in Buffer B (final volume: 0.2 ml) in the presence of increasing concentrations of unlabeled test ligands for 4 hours at 25° C. After incubation, unbound ligands were separated from bound ligands by vacuum filtration using glass-fiber filter strips in PHD cell harvesters (Cambridge Technology, Inc., Watertown, MA), followed by washing the filter strips with saline (1 ml) for three times. Nonspecific binding was determined in the presence of 1 μM ET-1. Inhibition of [^125]ET-1 binding to human ETA receptor by ETA antagonists. Each curve was determined in the presence of either 0%, 0.2%, 1%, or 5% HSA, and assays were performed as described above. The results are expressed as % of control binding, with [^125I]ET-1 binding in the absence of antagonist defining 100%. Each point represents the mean (±S.D.) of three determinations.

[2] = test system: ET-1-induced phosphatidylinositol hydrolysis in MMQ cells; experiment: Determination of ET-1-induced phosphatidylinositol (PI) hydrolysis in MMQ cells; assay type: cell-based, rat; details: 1 nM ET-1 challenge, read-out: IC50 (inhibition of ET-induced increase in PI turnover)
Description: MMQ cells (0.4×10^6 cells/mL) were labeled with 10 μCi/mL of [^3H]myo-inositol in RPMI for 16 hours. The cells were washed with PBS, then incubated with Buffer A containing protease inhibitors and 10 mM LiCl for 60 minutes. The cells were then incubated with test compounds for 5 minutes, and then challenged with 1 nM ET-1. ET-1 challenge was terminated by the addition of 1.5 mL of 1:2 (v/v) chloroform-methanol. Total inositol phosphates were extracted after adding chloroform and water to give final proportions of 1:1:0.9 (v/v/v) chloroform-methanol-water as described by Berridge (Biochem. J. 206 587–595 (1982)). The upper aqueous phase (1 mL) was retained and a small portion (100 μL) was counted. The rest of the aqueous sample was analyzed by batch chromatography using anion-exchange resin AG1-X8 (Bio-Rad). […] The results of the above study clearly indicate that the compounds act as functional ET antagonists.

ETA Receptor = target: T2, ETA Receptor (Rattus norvegicus, UniProt P26684); experiment: [125I]ET-1 binding to membranes from MMQ cells (ETA receptor binding assay, Table 4); details: test compound at 1 μM; 0.1 nM [125I]ET-1, MMQ cell membranes, 4 hours at 25° C.
T2 construct: endogenous in cells; host or cells: MMQ rat pituitary cells (membranes)
T2 sequence (P26684 21-426): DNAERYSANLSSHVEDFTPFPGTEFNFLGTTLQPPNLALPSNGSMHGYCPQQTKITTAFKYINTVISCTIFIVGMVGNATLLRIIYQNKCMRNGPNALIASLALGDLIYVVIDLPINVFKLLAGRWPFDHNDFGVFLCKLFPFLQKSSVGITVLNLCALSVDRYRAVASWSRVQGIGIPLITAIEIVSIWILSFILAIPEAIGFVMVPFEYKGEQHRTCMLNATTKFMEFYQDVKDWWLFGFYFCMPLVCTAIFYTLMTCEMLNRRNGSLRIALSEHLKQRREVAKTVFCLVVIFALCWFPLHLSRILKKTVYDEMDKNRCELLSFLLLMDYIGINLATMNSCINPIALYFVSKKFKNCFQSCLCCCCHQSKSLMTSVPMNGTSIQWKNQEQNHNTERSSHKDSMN

[3] = pH-solubility profile: maximum solubility in aqueous media at varying pH; assay type: physicochemical
From the text: Such increased aqueous solubility, coupled with the enhanced potency resulting from decreased protein binding, might make such compounds preferred for development as parenteral agents.

MAP = details: sodium-depleted squirrel monkeys; dosed orally; cited from earlier work
[4] = test system: post-ischaemic renal vasoconstriction; details: rats; cited from earlier work
[5] = test system: decrease in cerebral blood flow due to subarachnoid hemorrhage (SAH); details: rats; cited from earlier work

| SMILES | percent of bound compound (plasma protein binding, % PB) [1] [%] | percent of bound compound (plasma protein binding, % PB) ([1]; listed as Example #43) [%] | shift of the binding curve in the presence of increasing albumin levels (human ETA receptor) | IC50 [2] [pM] | % Inhibition of ETA at 1 μM (ETA Receptor) [%] | maximum solubility ([3]; pH 5.1, about 25° C.) [µg/mL] | maximum solubility ([3]; pH 6.5, about 25° C.) [µg/mL] | maximum solubility ([3]; pH 7.1, about 25° C.) [µg/mL] | maximum solubility ([3]; pH 7.6, about 25° C.) [µg/mL] | MAP (MAP) | post-ischaemic renal vasoconstriction [4] | decrease in cerebral blood flow due to subarachnoid hemorrhage (SAH) [5] |
| --- | --- | --- | --- | --- | --- | --- | --- | --- | --- | --- | --- | --- |
| CCCCN(CCCC)C(=O)CN1C[C@H](c2ccc3c(c2)OCO3)[C@@H](C(=O)O)[C@@H]1c1ccc(OC)cc1 (relative stereo) [Example 43, trans,trans-2-(4-Methoxyphenyl)-4-(1,3-benzodioxol-5-yl)-1-(N,N-di(n-butyl)aminocarbonylmethyl)-pyrrolidine-3-carboxylic acid] | > 98 | >99.5 | rightward shift of the binding curve (toward decreasing potency) | 100 | 99.2 | 80 | 510 | 990 | 1140 | – | – | – |
| COc1cccc(Oc2c(NS(=O)(=O)c3ccc(C(C)(C)C)cc3)ncnc2OCCO)c1 [Ro 46–2005] | – | – | – | – | – | – | – | – | – | decreases MAP | prevents post-ischaemic renal vasoconstriction | prevents the decrease in cerebral blood flow due to subarachnoid hemorrhage (SAH) |
